Results: ChEMBL document CHEMBL4507290 (2021)

Legend:
[1] = target: Mitogen-activated protein kinase 7 (Homo sapiens) (UniProt Q13164); conditions: Compound concentration 1000.0 nM
[2] = test system: Leucine-rich repeat serine/threonine-protein kinase 2 (Homo sapiens), Q5S007 [G2019S]; conditions: Compound concentration 1000.0 nM
[3] = target: Microtubule-associated serine/threonine-protein kinase 1 (Homo sapiens) (UniProt Q9Y2H9); conditions: Compound concentration 1000.0 nM
[4] = target: Serine/threonine-protein kinase 26 (Homo sapiens) (UniProt Q9P289); conditions: Compound concentration 1000.0 nM
[5] = target: Misshapen-like kinase 1 (Homo sapiens) (UniProt Q8N4C8); conditions: Compound concentration 1000.0 nM
[6] = target: Phosphorylase b kinase gamma catalytic chain, skeletal muscle/heart isoform (Homo sapiens) (UniProt Q16816); conditions: Compound concentration 1000.0 nM
[7] = target: Cyclin-dependent kinase 4 (Homo sapiens) (UniProt P11802); conditions: Compound concentration 1000.0 nM
[8] = target: Serine/threonine-protein kinase BRSK1 (Homo sapiens) (UniProt Q8TDC3); conditions: Compound concentration 1000.0 nM
[9] = target: Serine/threonine-protein kinase 17A (Homo sapiens) (UniProt Q9UEE5); conditions: Compound concentration 1000.0 nM
[10] = target: Vascular endothelial growth factor receptor 1 (Homo sapiens) (UniProt P17948); conditions: Compound concentration 1000.0 nM
[11] = target: Tyrosine-protein kinase ABL1 (Homo sapiens) (UniProt P00519); conditions: Compound concentration 1000.0 nM
Rattus norvegicus = species: Rattus norvegicus; conditions: Compound concentration 10.0 uM
[12] = test system: Fibroblast growth factor receptor 3 (Homo sapiens), P22607 [G697C]; conditions: Compound concentration 1000.0 nM
[13] = target: Vascular endothelial growth factor receptor 3 (Homo sapiens) (UniProt P35916); conditions: Compound concentration 1000.0 nM
[14] = target: Serine/threonine-protein kinase N2 (Homo sapiens) (UniProt Q16513); conditions: Compound concentration 1000.0 nM
[15] = target: Mitogen-activated protein kinase 15 (Homo sapiens) (UniProt Q8TD08); conditions: Compound concentration 1000.0 nM
[16] = target: Non-receptor tyrosine-protein kinase TYK2 (Homo sapiens) (UniProt P29597); conditions: Compound concentration 1000.0 nM
[17] = test system: Tyrosine-protein kinase ABL1 (Homo sapiens), P00519 [H396P]; conditions: Compound concentration 1000.0 nM
[18] = target: Serine/threonine-protein kinase RIO2 (Homo sapiens) (UniProt Q9BVS4); conditions: Compound concentration 1000.0 nM
[19] = target: Megakaryocyte-associated tyrosine-protein kinase (Homo sapiens) (UniProt P42679); conditions: Compound concentration 1000.0 nM
[20] = test system: Phosphatidylinositol 4,5-bisphosphate 3-kinase catalytic subunit alpha isoform (Homo sapiens), P42336 [H1047Y]; conditions: Compound concentration 1000.0 nM
[21] = test system: Epidermal growth factor receptor (Homo sapiens), P00533 [G719S]; conditions: Compound concentration 1000.0 nM
[22] = target: Mitogen-activated protein kinase 13 (Homo sapiens) (UniProt O15264); conditions: Compound concentration 1000.0 nM
[23] = target: Epithelial discoidin domain-containing receptor 1 (Homo sapiens) (UniProt Q08345); conditions: Compound concentration 1000.0 nM
[24] = target: Serine/threonine-protein kinase TAO3 (Homo sapiens) (UniProt Q9H2K8); conditions: Compound concentration 1000.0 nM
[25] = target: Phosphatidylinositol 4,5-bisphosphate 3-kinase catalytic subunit delta isoform (Homo sapiens) (UniProt O00329); conditions: Compound concentration 1000.0 nM
[26] = target: TGF-beta receptor type-2 (Homo sapiens) (UniProt P37173); conditions: Compound concentration 1000.0 nM
[27] = target: Fibroblast growth factor receptor 1 (Homo sapiens) (UniProt P11362); conditions: Compound concentration 1000.0 nM
[28] = target: Platelet-derived growth factor receptor beta (Homo sapiens) (UniProt P09619); conditions: Compound concentration 1000.0 nM
[29] = target: Sodium-dependent serotonin transporter (Homo sapiens) (UniProt P31645); conditions: Compound concentration 10.0 uM
[30] = target: Receptor-interacting serine/threonine-protein kinase 4 (Homo sapiens) (UniProt P57078); conditions: Compound concentration 1000.0 nM
[31] = test system: Receptor-type tyrosine-protein kinase FLT3 (Homo sapiens), P36888 [K663Q]; conditions: Compound concentration 1000.0 nM
[32] = target: Ephrin type-B receptor 6 (Homo sapiens) (UniProt O15197); conditions: Compound concentration 1000.0 nM
[33] = target: Serine/threonine-protein kinase PLK2 (Homo sapiens) (UniProt Q9NYY3); conditions: Compound concentration 1000.0 nM
[34] = test system: Phosphatidylinositol 4,5-bisphosphate 3-kinase catalytic subunit alpha isoform (Homo sapiens), P42336 [C420R]; conditions: Compound concentration 1000.0 nM
[35] = target: Myosin light chain kinase, smooth muscle (Homo sapiens) (UniProt Q15746); conditions: Compound concentration 1000.0 nM
[36] = target: Phosphorylase b kinase regulatory subunit alpha, liver isoform (Homo sapiens) (UniProt P46019); conditions: Compound concentration 1000.0 nM
[37] = target: Serine/threonine-protein kinase Nek1 (Homo sapiens) (UniProt Q96PY6); conditions: Compound concentration 1000.0 nM
[38] = target: Dual specificity protein kinase CLK3 (Homo sapiens) (UniProt P49761); conditions: Compound concentration 1000.0 nM
[39] = target: Ephrin type-A receptor 7 (Homo sapiens) (UniProt Q15375); conditions: Compound concentration 1000.0 nM
[40] = target: 5-hydroxytryptamine receptor 7 (Homo sapiens) (UniProt P34969); conditions: Compound concentration 10.0 uM
[41] = target: Death-associated protein kinase 3 (Homo sapiens) (UniProt O43293); conditions: Compound concentration 1000.0 nM
[42] = test system: Tyrosine-protein kinase ABL1 (Homo sapiens), P00519 [H396P]; conditions: Compound concentration 1000.0 nM; remark: listed apart in the source
[43] = target: Serine/threonine-protein kinase DCLK3 (Homo sapiens) (UniProt Q9C098); conditions: Compound concentration 1000.0 nM
[44] = target: Calcium/calmodulin-dependent protein kinase type 1 (Homo sapiens) (UniProt Q14012); conditions: Compound concentration 1000.0 nM
Sequence of Calcium/calmodulin-dependent protein kinase type 1 (Homo sapiens) (Q14012 whole entry, looked up): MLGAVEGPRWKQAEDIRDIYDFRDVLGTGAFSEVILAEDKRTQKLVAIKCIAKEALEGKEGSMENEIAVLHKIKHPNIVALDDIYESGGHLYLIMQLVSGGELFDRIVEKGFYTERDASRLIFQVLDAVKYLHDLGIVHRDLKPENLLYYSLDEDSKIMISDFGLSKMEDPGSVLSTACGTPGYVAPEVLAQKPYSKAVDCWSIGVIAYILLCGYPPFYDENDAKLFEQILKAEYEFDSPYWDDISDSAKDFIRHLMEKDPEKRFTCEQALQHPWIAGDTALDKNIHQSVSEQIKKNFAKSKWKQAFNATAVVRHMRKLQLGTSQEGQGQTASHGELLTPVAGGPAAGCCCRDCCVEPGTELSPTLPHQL

Sequence of Death-associated protein kinase 3 (Homo sapiens) (O43293 whole entry, looked up): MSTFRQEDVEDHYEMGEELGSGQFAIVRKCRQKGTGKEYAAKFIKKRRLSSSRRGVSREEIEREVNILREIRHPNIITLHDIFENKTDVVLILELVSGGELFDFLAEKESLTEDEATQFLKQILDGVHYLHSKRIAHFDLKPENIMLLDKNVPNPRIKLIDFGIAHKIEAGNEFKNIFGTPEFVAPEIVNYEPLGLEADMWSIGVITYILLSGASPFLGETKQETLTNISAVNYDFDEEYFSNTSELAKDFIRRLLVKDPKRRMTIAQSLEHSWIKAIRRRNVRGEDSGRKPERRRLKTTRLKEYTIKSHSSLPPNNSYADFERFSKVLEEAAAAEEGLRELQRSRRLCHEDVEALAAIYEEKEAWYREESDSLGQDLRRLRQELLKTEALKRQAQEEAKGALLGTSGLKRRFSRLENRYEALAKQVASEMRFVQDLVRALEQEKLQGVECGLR
Sequence of Serine/threonine-protein kinase RIO2 (Homo sapiens) (Q9BVS4 whole entry, looked up): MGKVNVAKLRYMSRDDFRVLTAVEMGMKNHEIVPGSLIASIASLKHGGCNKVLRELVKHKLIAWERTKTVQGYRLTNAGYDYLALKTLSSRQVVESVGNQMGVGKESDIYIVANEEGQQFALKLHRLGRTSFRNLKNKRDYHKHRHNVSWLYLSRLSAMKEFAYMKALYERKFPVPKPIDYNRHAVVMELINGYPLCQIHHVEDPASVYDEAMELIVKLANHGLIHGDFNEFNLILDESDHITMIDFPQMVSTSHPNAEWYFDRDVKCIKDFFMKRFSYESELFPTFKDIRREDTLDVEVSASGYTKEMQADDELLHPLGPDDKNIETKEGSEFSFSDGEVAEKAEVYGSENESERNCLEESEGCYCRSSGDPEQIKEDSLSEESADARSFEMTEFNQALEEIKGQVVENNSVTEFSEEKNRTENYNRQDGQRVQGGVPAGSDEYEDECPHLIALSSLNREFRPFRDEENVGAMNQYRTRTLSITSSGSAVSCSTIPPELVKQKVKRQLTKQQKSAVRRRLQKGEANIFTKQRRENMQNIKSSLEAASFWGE
Sequence of Serine/threonine-protein kinase DCLK3 (Homo sapiens) (Q9C098 whole entry): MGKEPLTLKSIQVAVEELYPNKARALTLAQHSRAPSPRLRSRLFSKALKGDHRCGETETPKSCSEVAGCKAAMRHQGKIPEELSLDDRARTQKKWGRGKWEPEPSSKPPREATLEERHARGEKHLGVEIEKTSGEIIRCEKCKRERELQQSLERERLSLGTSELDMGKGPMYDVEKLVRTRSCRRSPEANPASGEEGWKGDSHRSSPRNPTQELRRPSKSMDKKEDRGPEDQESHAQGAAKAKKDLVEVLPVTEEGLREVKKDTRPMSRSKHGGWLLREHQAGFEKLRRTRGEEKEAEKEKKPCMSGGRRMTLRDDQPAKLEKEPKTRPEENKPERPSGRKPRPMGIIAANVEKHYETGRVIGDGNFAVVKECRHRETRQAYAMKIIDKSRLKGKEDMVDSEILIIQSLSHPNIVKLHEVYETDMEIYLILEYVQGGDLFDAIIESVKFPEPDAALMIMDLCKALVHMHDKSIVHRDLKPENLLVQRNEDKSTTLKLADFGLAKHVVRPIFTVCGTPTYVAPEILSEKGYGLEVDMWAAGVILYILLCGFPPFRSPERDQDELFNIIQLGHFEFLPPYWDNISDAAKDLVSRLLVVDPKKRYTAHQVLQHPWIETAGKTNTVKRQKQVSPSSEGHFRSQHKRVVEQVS
Sequence of Serine/threonine-protein kinase 26 (Homo sapiens) (Q9P289 2-416 limits assumed): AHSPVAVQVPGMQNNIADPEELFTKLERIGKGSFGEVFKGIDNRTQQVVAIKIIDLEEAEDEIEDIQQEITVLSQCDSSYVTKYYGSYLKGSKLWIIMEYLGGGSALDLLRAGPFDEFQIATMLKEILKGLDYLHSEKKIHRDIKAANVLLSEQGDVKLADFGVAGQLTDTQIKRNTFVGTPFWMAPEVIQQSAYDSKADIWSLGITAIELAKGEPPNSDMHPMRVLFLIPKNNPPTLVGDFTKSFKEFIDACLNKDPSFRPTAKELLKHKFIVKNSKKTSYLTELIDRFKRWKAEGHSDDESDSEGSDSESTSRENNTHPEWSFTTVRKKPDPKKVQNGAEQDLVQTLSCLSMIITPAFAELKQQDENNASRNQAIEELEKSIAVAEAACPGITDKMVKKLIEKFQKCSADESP
Sequence of Platelet-derived growth factor receptor beta (Homo sapiens) (P09619 whole entry): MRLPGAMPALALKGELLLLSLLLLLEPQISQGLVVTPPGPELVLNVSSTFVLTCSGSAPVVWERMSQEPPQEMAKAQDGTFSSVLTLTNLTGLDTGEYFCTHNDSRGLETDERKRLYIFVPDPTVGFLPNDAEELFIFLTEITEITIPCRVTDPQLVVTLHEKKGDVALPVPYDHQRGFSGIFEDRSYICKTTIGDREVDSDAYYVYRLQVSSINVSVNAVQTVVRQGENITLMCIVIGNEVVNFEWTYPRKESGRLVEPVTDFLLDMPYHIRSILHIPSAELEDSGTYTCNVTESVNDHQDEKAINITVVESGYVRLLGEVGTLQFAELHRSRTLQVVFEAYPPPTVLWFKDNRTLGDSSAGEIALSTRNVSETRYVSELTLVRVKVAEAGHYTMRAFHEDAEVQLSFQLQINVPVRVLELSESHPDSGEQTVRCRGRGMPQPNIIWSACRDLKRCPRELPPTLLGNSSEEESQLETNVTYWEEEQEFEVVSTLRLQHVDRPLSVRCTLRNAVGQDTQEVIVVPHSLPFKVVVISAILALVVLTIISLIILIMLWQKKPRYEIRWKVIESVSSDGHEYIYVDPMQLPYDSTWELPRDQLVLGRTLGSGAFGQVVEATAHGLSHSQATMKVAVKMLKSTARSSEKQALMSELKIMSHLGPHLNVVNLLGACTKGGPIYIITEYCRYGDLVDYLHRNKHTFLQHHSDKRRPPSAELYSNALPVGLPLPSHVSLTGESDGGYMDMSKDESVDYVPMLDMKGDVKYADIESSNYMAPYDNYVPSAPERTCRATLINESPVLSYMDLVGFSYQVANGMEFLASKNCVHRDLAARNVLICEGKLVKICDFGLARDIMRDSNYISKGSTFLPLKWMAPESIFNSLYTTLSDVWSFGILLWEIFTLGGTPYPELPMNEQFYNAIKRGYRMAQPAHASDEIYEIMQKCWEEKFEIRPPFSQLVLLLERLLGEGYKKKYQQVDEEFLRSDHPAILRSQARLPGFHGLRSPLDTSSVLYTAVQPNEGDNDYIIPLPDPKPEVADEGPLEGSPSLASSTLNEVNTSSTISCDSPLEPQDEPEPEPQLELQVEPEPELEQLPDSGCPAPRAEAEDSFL
Sequence of Mitogen-activated protein kinase 15 (Homo sapiens) (Q8TD08 whole entry): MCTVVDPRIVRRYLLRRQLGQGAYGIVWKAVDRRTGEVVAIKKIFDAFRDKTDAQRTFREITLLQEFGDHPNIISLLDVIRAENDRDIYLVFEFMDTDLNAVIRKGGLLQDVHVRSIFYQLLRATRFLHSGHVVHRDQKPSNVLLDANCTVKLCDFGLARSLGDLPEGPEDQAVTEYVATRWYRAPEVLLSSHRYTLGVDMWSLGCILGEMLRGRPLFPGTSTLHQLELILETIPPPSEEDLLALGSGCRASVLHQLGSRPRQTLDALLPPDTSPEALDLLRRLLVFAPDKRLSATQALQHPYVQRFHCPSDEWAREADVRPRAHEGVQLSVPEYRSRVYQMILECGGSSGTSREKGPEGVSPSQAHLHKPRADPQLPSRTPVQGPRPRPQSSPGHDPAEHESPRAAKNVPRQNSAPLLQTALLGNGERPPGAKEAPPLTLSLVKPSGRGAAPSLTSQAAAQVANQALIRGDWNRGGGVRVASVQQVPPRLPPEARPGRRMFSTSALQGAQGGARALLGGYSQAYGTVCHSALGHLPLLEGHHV
Sequence of Megakaryocyte-associated tyrosine-protein kinase (Homo sapiens) (P42679 whole entry, canonical isoform): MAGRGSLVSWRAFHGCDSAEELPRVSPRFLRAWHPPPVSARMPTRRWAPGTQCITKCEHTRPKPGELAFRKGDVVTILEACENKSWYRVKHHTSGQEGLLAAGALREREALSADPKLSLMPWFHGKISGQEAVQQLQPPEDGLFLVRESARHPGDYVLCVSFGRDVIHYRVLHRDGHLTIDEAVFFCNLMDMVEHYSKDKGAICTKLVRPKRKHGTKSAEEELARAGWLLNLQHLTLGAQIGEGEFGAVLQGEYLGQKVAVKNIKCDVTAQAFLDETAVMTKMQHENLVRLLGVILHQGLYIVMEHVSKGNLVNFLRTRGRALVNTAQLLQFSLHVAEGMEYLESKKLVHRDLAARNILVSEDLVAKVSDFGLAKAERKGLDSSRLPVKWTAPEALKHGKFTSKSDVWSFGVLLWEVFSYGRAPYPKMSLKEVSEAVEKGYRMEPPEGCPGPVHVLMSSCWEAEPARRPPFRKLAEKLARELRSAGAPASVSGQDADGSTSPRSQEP
Sequence of Phosphorylase b kinase gamma catalytic chain, skeletal muscle/heart isoform (Homo sapiens) (Q16816 whole entry, looked up, canonical isoform): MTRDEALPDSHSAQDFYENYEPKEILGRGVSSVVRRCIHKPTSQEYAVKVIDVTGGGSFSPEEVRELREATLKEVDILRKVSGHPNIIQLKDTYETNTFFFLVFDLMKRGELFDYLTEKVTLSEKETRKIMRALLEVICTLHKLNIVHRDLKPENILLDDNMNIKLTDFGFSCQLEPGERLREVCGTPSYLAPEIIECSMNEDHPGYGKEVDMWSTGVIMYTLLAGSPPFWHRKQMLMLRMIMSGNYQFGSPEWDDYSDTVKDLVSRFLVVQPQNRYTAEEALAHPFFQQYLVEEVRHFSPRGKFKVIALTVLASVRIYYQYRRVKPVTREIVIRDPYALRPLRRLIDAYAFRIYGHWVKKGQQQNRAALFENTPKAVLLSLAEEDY

Question: Which results are given for `CN([C@@H]1CCc2c(CC(=O)O)c3cc(S(C)(=O)=O)ccc3n2C1)S(=O)(=O)c1ccc(F)cc1`?
Answer: residual activity [1]: 96%; residual activity [2]: 100%; residual activity [3]: 93%; residual activity [4]: 77%; residual activity [5]: 92%; residual activity [6]: 100%; residual activity [7]: 91%; residual activity [8]: 94%; residual activity [9]: 100%; residual activity [10]: 88%; residual activity [11]: 95%; inhibition (Rattus norvegicus): 41.4%; residual activity [12]: 90%; residual activity [13]: 100%; residual activity [14]: 100%; residual activity [15]: 100%; residual activity [16]: 100%; residual activity [17]: 78%; residual activity [18]: 96%; residual activity [19]: 100%; residual activity [20]: 90%; residual activity [21]: 100%; residual activity [22]: 68%; residual activity [23]: 100%; residual activity [24]: 73%; residual activity [25]: 100%; residual activity [26]: 67%; residual activity [27]: 100%; residual activity [28]: 86%; inhibition [29]: 5.16%; residual activity [30]: 75%; residual activity [31]: 100%; residual activity [32]: 82%; residual activity [33]: 90%; residual activity [34]: 98%; residual activity [35]: 94%; residual activity [36]: 100%; residual activity [37]: 100%; residual activity [38]: 100%; residual activity [39]: 100%; inhibition [40]: -3.44%; residual activity [41]: 97%; residual activity [42]: 55%; residual activity [43]: 71%; residual activity [44]: 80%

Question: With `CN([C@@H]1CCc2c(CC(=O)O)c3ccccc3n2C1)S(=O)(=O)c1ccc(F)cc1` [MK-7246] as the compound, how does the residual activity [1] read?
Answer: The residual activity was 100%.

Question: What about the residual activity [2] of the same compound?
Answer: Its residual activity is 100%.

Question: What about the residual activity [3] of the same compound?
Answer: Its residual activity is 100%.

Question: What about the residual activity [4] of the same compound?
Answer: Its residual activity is 79%.

Question: What about the residual activity [5] of the same compound?
Answer: Its residual activity is 100%.

Question: What about the residual activity [6] of the same compound?
Answer: The residual activity was 100%.

Question: What about the residual activity [7] of the same compound?
Answer: Its residual activity is 99%.

Question: What about the residual activity [8] of the same compound?
Answer: Its residual activity is 100%.

Question: What about the residual activity [9] of the same compound?
Answer: The residual activity was 100%.

Question: And the residual activity [10]?
Answer: The residual activity was 100%.

Question: And the residual activity [11]?
Answer: The residual activity was 100%.

Question: And the inhibition (Rattus norvegicus)?
Answer: The inhibition was 54%.

Question: What about the residual activity [12] of the same compound?
Answer: Its residual activity is 100%.

Question: And the residual activity [13]?
Answer: Its residual activity is 95%.

Question: And the residual activity [14]?
Answer: The residual activity was 100%.

Question: What about the residual activity [15] of the same compound?
Answer: The residual activity was 100%.

Question: What about the residual activity [16] of the same compound?
Answer: Its residual activity is 100%.

Question: What about the residual activity [17] of the same compound?
Answer: The residual activity was 100%.

Question: And the residual activity [18]?
Answer: Its residual activity is 90%.

Question: And the residual activity [19]?
Answer: The residual activity was 100%.

Question: And the residual activity [20]?
Answer: Its residual activity is 97%.

Question: And the residual activity [21]?
Answer: Its residual activity is 100%.

Question: What about the residual activity [22] of the same compound?
Answer: The residual activity was 91%.

Question: And the residual activity [23]?
Answer: Its residual activity is 78%.

Question: And the residual activity [24]?
Answer: The residual activity was 73%.

Question: What about the residual activity [25] of the same compound?
Answer: The residual activity was 95%.

Question: What about the residual activity [26] of the same compound?
Answer: Its residual activity is 100%.

Question: What about the residual activity [27] of the same compound?
Answer: Its residual activity is 100%.

Question: What about the residual activity [28] of the same compound?
Answer: Its residual activity is 97%.

Question: And the inhibition [29]?
Answer: Its inhibition is 9.29%.

Question: And the residual activity [30]?
Answer: The residual activity was 85%.

Question: And the residual activity [31]?
Answer: Its residual activity is 100%.

Question: What about the residual activity [32] of the same compound?
Answer: The residual activity was 83%.

Question: And the residual activity [33]?
Answer: The residual activity was 92%.

Question: And the residual activity [34]?
Answer: Its residual activity is 100%.

Question: And the residual activity [35]?
Answer: The residual activity was 100%.

Question: And the residual activity [36]?
Answer: Its residual activity is 100%.

Question: What about the residual activity [37] of the same compound?
Answer: The residual activity was 100%.

Question: And the residual activity [38]?
Answer: Its residual activity is 97%.

Question: And the residual activity [39]?
Answer: Its residual activity is 100%.

Question: What about the inhibition [40] of the same compound?
Answer: Its inhibition is 4.11%.

Question: And the residual activity [41]?
Answer: Its residual activity is 87%.

Question: What about the residual activity [42] of the same compound?
Answer: Its residual activity is 100%.

Question: What about the residual activity [43] of the same compound?
Answer: The residual activity was 99%.

Question: And the residual activity [44]?
Answer: The residual activity was 100%.
